Structures can show the parent of a compound that is named as a salt.
What follows are compounds tested against hCereblon(M1-L442)_hDDB1(M1-H1140) (Homo sapiens (Human), UniProt Q96SW2) (assay: Fluorescence direct binding protocol (tryptophan fluorescence titration)). Details: fluorescence titration at 20° C., excited at 280 nm, recorded at 340 nm; protein 5.0 E−8 M; assay buffer 50 mM Hepes 7.4 200 mM NaCl; read-out: Fluorescence h-Cereblon_DDB1 Mean Kd_EQ.
How it was run: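 At 20° C., protein at constant concentration was titrated with ligand in DMSO over at least 12 steps, exciting tryptophan at 280 nm and reading emission at 340 nm. Intensities were corrected for dilution and filter effect, and Kd was fitted assuming 1:1 binding.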

Chain of hCereblon(M1-L442)_hDDB1(M1-H1140) (Q96SW2 whole entry): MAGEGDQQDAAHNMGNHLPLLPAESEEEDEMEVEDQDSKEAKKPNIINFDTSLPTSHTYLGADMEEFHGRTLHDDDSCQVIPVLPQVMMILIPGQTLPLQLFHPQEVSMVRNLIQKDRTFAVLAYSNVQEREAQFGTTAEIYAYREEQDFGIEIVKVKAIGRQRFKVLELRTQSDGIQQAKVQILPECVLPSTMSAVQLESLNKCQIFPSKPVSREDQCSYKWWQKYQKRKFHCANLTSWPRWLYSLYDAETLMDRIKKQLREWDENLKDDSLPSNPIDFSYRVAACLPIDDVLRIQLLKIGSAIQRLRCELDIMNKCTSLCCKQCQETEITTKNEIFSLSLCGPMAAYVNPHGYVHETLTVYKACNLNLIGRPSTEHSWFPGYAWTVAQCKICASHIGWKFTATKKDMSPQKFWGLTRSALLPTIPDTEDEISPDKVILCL
Chain of hCereblon(M1-L442)_hDDB1(M1-H1140) (Q16531 whole entry partner): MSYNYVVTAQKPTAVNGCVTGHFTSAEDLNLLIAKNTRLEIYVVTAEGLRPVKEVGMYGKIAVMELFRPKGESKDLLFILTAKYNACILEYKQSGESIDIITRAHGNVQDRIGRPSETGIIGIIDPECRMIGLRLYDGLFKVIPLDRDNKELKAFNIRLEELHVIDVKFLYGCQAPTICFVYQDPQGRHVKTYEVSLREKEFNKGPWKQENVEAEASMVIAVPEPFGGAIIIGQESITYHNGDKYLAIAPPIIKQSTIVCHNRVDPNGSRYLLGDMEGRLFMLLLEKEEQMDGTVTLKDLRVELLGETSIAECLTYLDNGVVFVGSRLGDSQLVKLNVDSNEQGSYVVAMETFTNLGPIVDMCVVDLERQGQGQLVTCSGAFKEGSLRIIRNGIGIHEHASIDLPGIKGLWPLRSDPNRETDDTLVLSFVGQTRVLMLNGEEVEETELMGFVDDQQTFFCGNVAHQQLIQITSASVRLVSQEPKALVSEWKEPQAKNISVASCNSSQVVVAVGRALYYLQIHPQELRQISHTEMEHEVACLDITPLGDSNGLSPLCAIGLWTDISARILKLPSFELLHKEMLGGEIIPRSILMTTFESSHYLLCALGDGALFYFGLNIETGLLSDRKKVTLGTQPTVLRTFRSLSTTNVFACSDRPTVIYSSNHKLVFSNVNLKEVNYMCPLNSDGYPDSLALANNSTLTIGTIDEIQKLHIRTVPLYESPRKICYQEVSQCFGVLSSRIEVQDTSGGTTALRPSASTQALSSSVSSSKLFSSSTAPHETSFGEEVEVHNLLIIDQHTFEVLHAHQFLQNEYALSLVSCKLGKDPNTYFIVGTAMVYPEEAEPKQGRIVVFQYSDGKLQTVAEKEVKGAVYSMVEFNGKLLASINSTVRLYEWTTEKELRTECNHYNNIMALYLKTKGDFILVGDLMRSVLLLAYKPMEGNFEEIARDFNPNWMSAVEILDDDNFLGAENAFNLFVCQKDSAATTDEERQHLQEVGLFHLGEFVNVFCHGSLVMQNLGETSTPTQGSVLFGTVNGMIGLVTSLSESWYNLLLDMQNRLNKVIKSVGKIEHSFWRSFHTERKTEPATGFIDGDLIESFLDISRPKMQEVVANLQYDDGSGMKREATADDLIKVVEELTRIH

Row | Compound | Kd
1 | O=C1c2ccc(Br)cc2CN1c1ccc2[nH]c(=O)[nH]c2c1 [Example 110, 5-(5-Bromo-1-oxo-isoindolin-2-yl)-1,3-dihydrobenzimidazol-2-one] | 29 nM
2 | CCOC(=O)c1ccc2c(c1)CN(c1ccc3[nH]c(=O)[nH]c3c1)C2=O [Example 111, Ethyl 1-oxo-2-(2-oxo-1,3-dihydrobenzimidazol-5-yl)isoindoline-5-carboxylate] | 18 nM
3 | CNC(=O)c1ccc2c(c1)nc(C1(c3ccc(OC)cc3)CC1)n2-c1ccc2[nH]c(=O)[nH]c2c1 [Example 115, 2-(1-(4-Methoxyphenyl)cyclopropyl)-N-methyl-2′-oxo-2′,3′-dihydro-1′H-[1,5′-bibenzo[d]imidazole]-5-carboxamide] | 96 nM
4 | O=c1[nH]c2ccc(S(=O)(=O)N3CCc4ccccc43)cc2[nH]1 [Example 116, 5-(Indolin-1-ylsulfonyl)-1,3-dihydro-2H-benzo[d]imidazol-2-one] | 48 nM
5 | CC(=O)N1CCC(NS(=O)(=O)c2ccc3[nH]c(=O)[nH]c3c2)CC1 [Example 117, N-(1-Acetylpiperidin-4-yl)-2-oxo-2,3-dihydro-1H-benzo[d]imidazole-5-sulfonamide] | 8 nM
6 | COC(=O)c1ccc(S(=O)(=O)Nc2ccc3[nH]c(=O)[nH]c3c2)cc1 [Example 118, Methyl 4-(N-(2-oxo-2,3-dihydro-1H-benzo[d]imidazol-5-yl)sulfamoyl)benzoate] | 82 nM
7 | CC(C)(C)OC(=O)Nc1ccc2c(c1)CCN2C(=O)Nc1ccc2[nH]c(=O)[nH]c2c1 [Example 119, tert-Butyl (1-((2-oxo-2,3-dihydro-1H-benzo[d]imidazol-5-yl)carbamoyl)indolin-5-yl)carbamate] | 113 nM
8 | CC(C)c1nc2cc(OCc3ccccc3)ccc2n1-c1ccc2[nH]c(=O)[nH]c2c1 [Example 120, 5-(Benzyloxy)-2-isopropyl-1′,3′-dihydro-2′H-[1,5′-bibenzo[d]imidazol]-2′-one] | 194 nM
9 | COc1ccc2c(c1)nc(C(C)C)n2-c1ccc2[nH]c(=O)[nH]c2c1 [Example 124, 2-Isopropyl-5-methoxy-1′,3′-dihydro-2′H-[1,5′-bibenzo[d]imidazol]-2′-one] | 13 nM
10 | CC(C)(C)OC(=O)N1CCC(S(=O)(=O)Nc2ccc3[nH]c(=O)[nH]c3c2)CC1 [Example 125, tert-Butyl 4-(N-(2-oxo-2,3-dihydro-1H-benzo[d]imidazol-5-yl)sulfamoyl)piperidine-1-carboxylate] | 20 nM
11 | COc1ccccc1N1CCN(C(=O)Nc2ccc3[nH]c(=O)[nH]c3c2)CC1 [Example 128, 4-(2-Methoxyphenyl)-N-(2-oxo-2,3-dihydro-1H-benzo[d]imidazol-5-yl)piperazine-1-carboxamide] | 14 nM
12 | CNC(=O)c1ccc2c(c1)nc(C1CCC(OC)CC1)n2-c1ccc2[nH]c(=O)[nH]c2c1 (centres unmarked) [Example 131, 2-(4-Methoxycyclohexyl)-N-methyl-2′-oxo-2′,3′-dihydro-1′H-[1,5′-bibenzo[d]imidazole]-5-carboxamide] | 10 nM
13 | O=c1[nH]c2ccc(NS(=O)(=O)C3CCNCC3)cc2[nH]1 [Example 134, N-(2-Oxo-2,3-dihydro-1H-benzo[d]imidazol-5-yl)piperidine-4-sulfonamide] | 7 nM
14 | O=C(Nc1ccc2[nH]c(=O)[nH]c2c1)N1CCN(Cc2ccc(Cl)cc2)CC1 [Example 135, 4-(4-Chlorobenzyl)-N-(2-oxo-2,3-dihydro-1H-benzo[d]imidazol-5-yl)piperazine-1-carboxamide] | 7 nM
15 | O=c1[nH]c2ccc(NS(=O)(=O)c3coc4ccccc34)cc2[nH]1 [Example 137, N-(2-Oxo-2,3-dihydro-1H-benzo[d]imidazol-5-yl)benzofuran-3-sulfonamide] | 22 nM
16 | O=C(NC1CCN(Cc2ccccc2)CC1)c1ccc2[nH]c(=O)[nH]c2c1 [Example 139, N-(1-Benzylpiperidin-4-yl)-2-oxo-2,3-dihydro-1H-benzo[d]imidazole-5-carboxamide] | 4 nM
17 | Nc1ccc2c(c1)CCN2c1ccc2[nH]c(=O)[nH]c2c1 [Example 140, 5-(5-Aminoindolin-1-yl)-1,3-dihydro-2H-benzo[d]imidazol-2-one hydrochloride] | 168 nM
18 | CC(C)(C)OC(=O)Nc1ccc2c(c1)CCN2Cc1ccc2[nH]c(=O)[nH]c2c1 [Example 148, tert-Butyl (1-((2-oxo-2,3-dihydro-1H-benzo[d]imidazol-5-yl)methyl)indolin-5-yl)carbamate] | 19 nM
19 | Nc1ccc2c(c1)CCN2Cc1ccc2[nH]c(=O)[nH]c2c1 [Example 149, 5-((5-Aminoindolin-1-yl)methyl)-1,3-dihydro-2H-benzo[d]imidazol-2-one] | 17 nM

Now from value to compound:

Row | Kd | Compound
20 | 57 nM | COC(=O)c1ccc2c(c1)CN(c1ccc3[nH]c(=O)[nH]c3c1)C2=O [Example 112, Methyl 1-oxo-2-(2-oxo-1,3-dihydrobenzimidazol-5-yl)isoindoline-5-carboxylate]
21 | 899 nM | Cn1cncc1-c1cc(-c2nc3cc(C(N)=O)ccc3n2-c2ccc3[nH]c(=O)[nH]c3c2)c2ccccc2n1 [Example 113, 2-(2-(1-Methyl-1H-imidazol-5-yl)quinolin-4-yl)-2′-oxo-2′,3′-dihydro-1′H-[1,5′-bibenzo[d]imidazole]-5-carboxamide]
22 | 8 nM | CNC(=O)c1ccc2c(c1)nc(C1(c3ccccc3)CC1)n2-c1ccc2[nH]c(=O)[nH]c2c1 [Example 114, N-Methyl-2′-oxo-2-(1-phenylcyclopropyl)-2′,3′-dihydro-1′H-[1,5′-bibenzo[d]imidazole]-5-carboxamide]
23 | 65 nM | Nc1ccc2c(c1)CCN2C(=O)Nc1ccc2[nH]c(=O)[nH]c2c1 [Example 121, 5-Amino-N-(2-oxo-2,3-dihydro-1H-benzo[d]imidazol-5-yl)indoline-1-carboxamide]
24 | 730 nM | Cc1ccccc1-c1ccccc1C(=O)Nc1ccc2[nH]c(=O)[nH]c2c1 [Example 122, 2′-Methyl-N-(2-oxo-2,3-dihydro-1H-benzo[d]imidazol-5-yl)-[1,1′-biphenyl]-2-carboxamide]
25 | 22 nM | O=C(Nc1ccc2[nH]c(=O)[nH]c2c1)c1ccccc1Cc1ccccc1 [Example 123, 2-Benzyl-N-(2-oxo-2,3-dihydro-1H-benzo[d]imidazol-5-yl)benzamide]
26 | 9 nM | CCOC(=O)c1ccc(NC(=O)Nc2ccc3[nH]c(=O)[nH]c3c2)cc1 [Example 126, Ethyl 4-(3-(2-oxo-2,3-dihydro-1H-benzo[d]imidazol-5-yl)ureido)benzoate]
27 | 26 nM | O=C(Nc1cccc(F)c1)Nc1ccc2[nH]c(=O)[nH]c2c1 [Example 127, 1-(3-Fluorophenyl)-3-(2-oxo-2,3-dihydro-1H-benzo[d]imidazol-5-yl)urea]
28 | 188 nM | O=C(Nc1ccc2[nH]c(=O)[nH]c2c1)N1CCc2ccc(Cl)cc21 [Example 129, 6-Chloro-N-(2-oxo-2,3-dihydro-1H-benzo[d]imidazol-5-yl)indoline-1-carboxamide]
29 | 781 nM | Cn1ccc(-c2cccc(NC(=O)c3ccc4[nH]c(=O)[nH]c4c3)c2)n1 [Example 130, N-(3-(1-Methyl-1H-pyrazol-3-yl)phenyl)-2-oxo-2,3-dihydro-1H-benzo[d]imidazole-5-carboxamide]
30 | < 1 nM | COc1cnccc1C(=O)Nc1ccc2[nH]c(=O)[nH]c2c1 [Example 132, 3-Methoxy-N-(2-oxo-2,3-dihydro-1H-benzo[d]imidazol-5-yl)isonicotinamide]
31 | 121 nM | CNC(=O)c1ccc(C(=O)Nc2ccc3[nH]c(=O)[nH]c3c2)cn1 [Example 133, N2-Methyl-N5-(2-oxo-2,3-dihydro-1H-benzo[d]imidazol-5-yl)pyridine-2,5-dicarboxamide]
32 | 79 nM | O=C(Nc1ccc2[nH]c(=O)[nH]c2c1)c1ccccc1-c1ccncc1 [Example 136, N-(2-Oxo-2,3-dihydro-1H-benzo[d]imidazol-5-yl)-2-(pyridin-4-yl)benzamide]
33 | 109 nM | COc1cccc(-c2ncccc2C(=O)Nc2ccc3[nH]c(=O)[nH]c3c2)c1 [Example 138, 2-(3-Methoxyphenyl)-N-(2-oxo-2,3-dihydro-1H-benzo[d]imidazol-5-yl)nicotinamide]
34 | 53 nM | CC(=O)Nc1ccc2c(c1)CCN2c1ccc2[nH]c(=O)[nH]c2c1 [Example 141, N-(1-(2-Oxo-2,3-dihydro-1H-benzo[d]imidazol-5-yl)indolin-5-yl)acetamide]
35 | 11 nM | O=C(Nc1cccc(-c2cnco2)c1)c1ccc2[nH]c(=O)[nH]c2c1 [Example 142, N-(3-(Oxazol-5-yl)phenyl)-2-oxo-2,3-dihydro-1H-benzo[d]imidazole-5-carboxamide]
36 | 159 nM | CC(C)(C)OC(=O)N1CCc2c(C(=O)Nc3ccc4[nH]c(=O)[nH]c4c3)cccc21 [Example 143, tert-Butyl 4-((2-oxo-2,3-dihydro-1H-benzo[d]imidazol-5-yl)carbamoyl)indoline-1-carboxylate]
37 | 29 nM | O=C(Nc1ccc2[nH]c(=O)[nH]c2c1)c1cccc2c1CCN2 [Example 144, N-(2-Oxo-2,3-dihydro-1H-benzo[d]imidazol-5-yl)indoline-4-carboxamide]
38 | 84 nM | CC(=O)N1CCc2c(C(=O)Nc3ccc4[nH]c(=O)[nH]c4c3)cccc21 [Example 145, 1-Acetyl-N-(2-oxo-2,3-dihydro-1H-benzo[d]imidazol-5-yl)indoline-4-carboxamide]
39 | 18 nM | CC(=O)Nc1ccc(NCc2ccc3[nH]c(=O)[nH]c3c2)cc1 [Example 146, N-(4-(((2-Oxo-2,3-dihydro-1H-benzo[d]imidazol-5-yl)methyl)amino)phenyl)acetamide]
40 | 338 nM | CNC(=O)c1ccccc1NC(=O)c1ccc2[nH]c(=O)[nH]c2c1 [Example 147, N-(2-(Methylcarbamoyl)phenyl)-2-oxo-2,3-dihydro-1H-benzo[d]imidazole-5-carboxamide]
41 | 3 nM | CC(=O)Nc1ccc2c(c1)CCN2Cc1ccc2[nH]c(=O)[nH]c2c1 [Example 150, N-(1-((2-Oxo-2,3-dihydro-1H-benzo[d]imidazol-5-yl)methyl)indolin-5-yl)acetamide]

Source: patent US11787802B2, “Dihydrobenzimidazolones for medical treatment” (C4 Therapeutics, Inc., priority 2017, dated 2023)
